Experimental data published in US9132098B2, “Stable nanocomposition comprising doxorubicin, process for the preparation thereof, its use and pharmaceutical compositions containing it” (BBS Nanotechnology Ltd., priority 2013, dated 2015).

System: SK-OV-3 human ovary adenocarcinoma cells
Test: Comparative efficacy study in SK-OV-3 s.c. xenograft SCID mouse model of ovary cancer
Format: in vivo, SCID mice
Conditions: 78th day after tumor inoculation, total dose DOX 23, NP 17, NP-PEG 23 mg/kg
Procedure: Tumor was induced in mice by implanting SK-OV-3 human ovary adenocarcinoma cells s.c. in upper region of back of SCID mice and allowing the tumors to develop to appreciable size over 40 days (30 mm3). The comparative efficacy study of six i.v. injection (day 43, 50, 57, 65, 71 and 78) of 5% glucose, doxorubicin (DOX) 3.8 mg/kg, NP […] and NP-PEG 3.8 mg/kg) was evaluated over 104 days. In this table there are the tumor volume of mice on 78th day after tumor inoculation (data represent mean±SEM of five mice per_group) and body weight of mice on 78th day after tumor inoculation (Data represent mean±STDEV of five mice per group). The table below discloses the comparative efficacy study in SK-OV-3 s.c. xenograft SCID mouse model of ovary cancer.

Animal weight (six i.v. injections, mean±STDEV of five mice): 22.54 ± 0.77 g
Structure (SMILES): COc1cccc2c1C(=O)c1c(O)c3c(c(O)c1C2=O)C[C@@](O)(C(=O)CO)C[C@@H]3O[C@H]1C[C@H](N)[C@H](O)[C@H](C)O1 [DOX]
Tumor volume (mm^3) (six i.v. injections (day 43-78), mean±SEM of five mice): 294.8 ± 216 mm^3
